Laboratory results: ChEMBL document CHEMBL1201862, “PubChem BioAssay data set” (2004)
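Grown in 96-well plates, cells were treated for 48 hours with each compound at five concentrations. Insufficient inhibition: endpoint recorded as highest concentration tested. The concentration for 50% growth inhibition is given as GI50.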 Activity calls are given as the source filed them. Rule as the data show it: active = GI50 up to about 1.1 µM and inactive = higher.

Columns and labels:
Assay in all cases: NCI-60 cell line screen, 48 h
[1] = system: PC-3
[2] = system: NCI-H226
[3] = system: RPMI-8226
[4] = system: CCRF-CEM
[5] = system: SNB-75
[6] = system: NCI/ADR-RES
[7] = system: SN12C
[8] = system: SK-MEL-2
[9] = system: RXF 393
[10] = system: Hs-578T
[11] = system: 786-0
[12] = system: HL-60
[13] = system: MOLT-4
[14] = system: OVCAR-5
[15] = system: SNB-19
[16] = system: IGROV-1
[17] = system: SK-OV-3
[18] = system: UO-31
[19] = system: UACC-257
[20] = system: NCI-H522

| Structure (SMILES) | GI50 [1] | GI50 [2] | GI50 [3] | GI50 [4] | GI50 [5] | GI50 [6] | GI50 [7] | GI50 [8] | GI50 [9] | GI50 [10] | GI50 [11] | GI50 [12] | GI50 [13] | GI50 [14] | GI50 [15] | GI50 [16] | GI50 [17] | GI50 [18] | GI50 [19] | GI50 [20] |
| --- | --- | --- | --- | --- | --- | --- | --- | --- | --- | --- | --- | --- | --- | --- | --- | --- | --- | --- | --- | --- |
| Cc1c(C(=O)OCc2ccccc2)[n+]([O-])c2ccccc2[n+]1[O-] | 23.1 µM (inactive) | 14.5 µM (inactive) | 11.6 µM (inactive) | < 0.01 µM (active) | 15.6 µM (inactive) | 26.2 µM (inactive) | 31.3 µM (inactive) | 32.8 µM (inactive) | 23.7 µM (inactive) | 30.1 µM (inactive) | 44.1 µM (inactive) | 26.1 µM (inactive) | 5.4 µM (inactive) | 60.1 µM (inactive) | 57.3 µM (inactive) | 13 µM (inactive) | 28 µM (inactive) | 27.8 µM (inactive) | 17.8 µM (inactive) |  |
| COc1nc(C#CCCCC#N)nc(OC)n1 | 13.2 µM (inactive) |  |  |  | 19.5 µM (inactive) | 28.5 µM (inactive) | 16.4 µM (inactive) | 16 µM (inactive) | 15.6 µM (inactive) | 40.8 µM (inactive) | 11.1 µM (inactive) | 4.13 µM (inactive) | 14.4 µM (inactive) | 13.5 µM (inactive) | 77.3 µM (inactive) | 17.3 µM (inactive) | 90.6 µM (inactive) | 11.1 µM (inactive) | 18.9 µM (inactive) | 14.2 µM (inactive) |
| Cc1cc2c(cc1Cl)SC(NNC(=O)c1ccccc1)=NS2(=O)=O | > 10 µM (inactive) | > 10 µM (inactive) | > 10 µM (inactive) | > 10 µM (inactive) | > 10 µM (inactive) | > 10 µM (inactive) | > 10 µM (inactive) | > 10 µM (inactive) | > 10 µM (inactive) | > 10 µM (inactive) | > 10 µM (inactive) | > 10 µM (inactive) | > 10 µM (inactive) | > 10 µM (inactive) | > 10 µM (inactive) | > 10 µM (inactive) | > 10 µM (inactive) |  | > 10 µM (inactive) | > 10 µM (inactive) |
| Nn1c(Nc2ccc(S(=O)(=O)Nc3ncccn3)cc2)nnc(/C=C/c2c(O)ccc3ccccc23)c1=O | 27.7 µM (inactive) |  | 34.1 µM (inactive) | 15.8 µM (inactive) | 22.2 µM (inactive) | 32.7 µM (inactive) | 28.3 µM (inactive) | 18.5 µM (inactive) | 26.2 µM (inactive) | 48.4 µM (inactive) | 26.6 µM (inactive) | 20.6 µM (inactive) | > 100 µM (inactive) | 32.7 µM (inactive) | 46.9 µM (inactive) | 27.5 µM (inactive) |  | 30.5 µM (inactive) | 20.1 µM (inactive) | 34.3 µM (inactive) |
| CCOC(=O)/C(C[C@H]1OC(C)(C)O[C@@H]1[C@H]1COC(C)(C)O1)=N/O | > 100 µM (inactive) | > 100 µM (inactive) | > 100 µM (inactive) | > 100 µM (inactive) |  | > 100 µM (inactive) | > 100 µM (inactive) | > 100 µM (inactive) | > 100 µM (inactive) | > 100 µM (inactive) | > 100 µM (inactive) | > 100 µM (inactive) | > 100 µM (inactive) | > 100 µM (inactive) | > 100 µM (inactive) | > 100 µM (inactive) | > 100 µM (inactive) | > 100 µM (inactive) | > 100 µM (inactive) | > 100 µM (inactive) |
| CC(=O)O[C@@H]1[C@H](C(C)C)[C@@H](OC(C)=O)C/C(C)=C/CC[C@]2(C)O[C@@H]12 | > 100 µM (inactive) | > 100 µM (inactive) | > 100 µM (inactive) |  | > 100 µM (inactive) | > 100 µM (inactive) | > 100 µM (inactive) | > 100 µM (inactive) | > 100 µM (inactive) | > 100 µM (inactive) | > 100 µM (inactive) | > 100 µM (inactive) | > 100 µM (inactive) | > 100 µM (inactive) | > 100 µM (inactive) | > 100 µM (inactive) | > 100 µM (inactive) | > 100 µM (inactive) | > 100 µM (inactive) | > 100 µM (inactive) |
| CN(CCCNC(=O)c1nn(-c2ccc(Cl)cc2Cl)c2c1Cc1ccccc1-2)CCCNC(=O)c1nn(-c2ccc(Cl)cc2Cl)c2c1Cc1ccccc1-2 | 1.73 µM (inactive) |  | 1.21 µM (inactive) | 0.993 µM (active) | 1.55 µM (inactive) | 1.87 µM (inactive) | 1.67 µM (inactive) | 1.92 µM (inactive) | 1.77 µM (inactive) | 2.74 µM (inactive) | 1.67 µM (inactive) | 1.49 µM (inactive) | 1.32 µM (inactive) | 1.57 µM (inactive) | 1.77 µM (inactive) | 1.76 µM (inactive) | 1.78 µM (inactive) | 1.82 µM (inactive) | 1.81 µM (inactive) | 1.43 µM (inactive) |
| O=C(CCC(C(=O)OCc1ccccc1)C(=O)OCc1ccccc1)Nc1ccc(OCc2ccccc2)cc1 | 17.6 µM (inactive) | > 100 µM (inactive) |  | 47.5 µM (inactive) | > 100 µM (inactive) | 60.4 µM (inactive) | > 100 µM (inactive) |  | 49.8 µM (inactive) | 52.7 µM (inactive) | 16.2 µM (inactive) | > 100 µM (inactive) | 55.6 µM (inactive) | > 100 µM (inactive) | 83.2 µM (inactive) | > 100 µM (inactive) | > 100 µM (inactive) | > 100 µM (inactive) | > 100 µM (inactive) | > 100 µM (inactive) |
| C[N+](C)(N)Cc1nc(-c2ccc(Cl)cc2)no1 | > 100 µM (inactive) | > 100 µM (inactive) | 52.8 µM (inactive) | 94.8 µM (inactive) | > 100 µM (inactive) | > 100 µM (inactive) | > 100 µM (inactive) | > 100 µM (inactive) | > 100 µM (inactive) | > 100 µM (inactive) | > 100 µM (inactive) | > 100 µM (inactive) | 20.8 µM (inactive) | > 100 µM (inactive) | > 100 µM (inactive) | > 100 µM (inactive) | > 100 µM (inactive) |  | > 100 µM (inactive) | > 100 µM (inactive) |
| Oc1ccc(C(O)(c2ccccc2)c2ccccc2)c2ccccc12 | 2.25 µM (inactive) | 2.52 µM (inactive) |  | 0.019 µM (active) | 4.53 µM (inactive) | 2.1 µM (inactive) | 2.22 µM (inactive) | 2.4 µM (inactive) | 3.75 µM (inactive) | 3.88 µM (inactive) | 2.02 µM (inactive) | 2.93 µM (inactive) | 3.14 µM (inactive) | 2.3 µM (inactive) | 5.15 µM (inactive) | 1.87 µM (inactive) | 3.25 µM (inactive) | 2.97 µM (inactive) | 6.85 µM (inactive) | 2.42 µM (inactive) |
| CCCCCCCCCCCCCCCCCCOCC(CO[PH](=O)O)OCCCCCCCCCCCCCCCCCC (centres undefined) | > 50 µM (inactive) | > 50 µM (inactive) | > 50 µM (inactive) |  | > 50 µM (inactive) | > 50 µM (inactive) | > 50 µM (inactive) | > 50 µM (inactive) | > 50 µM (inactive) | > 50 µM (inactive) | > 50 µM (inactive) | > 50 µM (inactive) | > 50 µM (inactive) | > 50 µM (inactive) | > 50 µM (inactive) | > 50 µM (inactive) | > 50 µM (inactive) |  | > 50 µM (inactive) | > 50 µM (inactive) |
| CC1CCC(=O)C(C(=O)CC2CC(=O)NC(=O)C2)C1 (centres undefined) | > 100 µM (inactive) | > 100 µM (inactive) | > 100 µM (inactive) | > 100 µM (inactive) | > 100 µM (inactive) | > 100 µM (inactive) | > 100 µM (inactive) | > 100 µM (inactive) | > 100 µM (inactive) | > 100 µM (inactive) | > 100 µM (inactive) | > 100 µM (inactive) | > 100 µM (inactive) | > 100 µM (inactive) | > 100 µM (inactive) | > 100 µM (inactive) | > 100 µM (inactive) | > 100 µM (inactive) | > 100 µM (inactive) |  |
| O=c1c2ccccc2oc2c1ccc1ncccc12 | 22.4 µM (inactive) | 13.3 µM (inactive) | 15.4 µM (inactive) | 11.1 µM (inactive) | 21.3 µM (inactive) | 10.4 µM (inactive) | 10.6 µM (inactive) | 27.2 µM (inactive) | 13.4 µM (inactive) | 11.9 µM (inactive) | 12.3 µM (inactive) | 9.35 µM (inactive) | 3.08 µM (inactive) | 1.4 µM (inactive) |  | 11 µM (inactive) | 6.38 µM (inactive) | 5.93 µM (inactive) | 20.7 µM (inactive) | 12.7 µM (inactive) |
| COC1C(O)C(C)OC(OC2C(Oc3cccc4c(O)c5c(=O)oc6ccc(C)c7c(=O)oc(c34)c5c67)OC(C)C(O)C2O)C1O (centres undefined) | 4.04 µM (inactive) | 1.35 µM (inactive) | 1.39 µM (inactive) | 0.836 µM (active) | 2.49 µM (inactive) | 11.8 µM (inactive) | 2.52 µM (inactive) | 1.03 µM (active) | 1.34 µM (inactive) | 2.38 µM (inactive) | 0.91 µM (active) | 2.38 µM (inactive) | 0.488 µM (active) | 4.56 µM (inactive) |  | 1.87 µM (inactive) | 4.37 µM (inactive) | 4.59 µM (inactive) | 2.31 µM (inactive) | 0.871 µM (active) |
| N#Cc1c(Cl)cccc1Oc1ccc(S(=O)(=O)N/C(=N\O)Nc2ccc(Cl)cc2)cc1 | 16.4 µM (inactive) | 24.8 µM (inactive) | 30.4 µM (inactive) | 18.9 µM (inactive) |  | 20.7 µM (inactive) | 14.8 µM (inactive) | 17.6 µM (inactive) | 17.9 µM (inactive) | 27.4 µM (inactive) | 13.6 µM (inactive) | 12.1 µM (inactive) | 18.4 µM (inactive) | 19.3 µM (inactive) | 16.3 µM (inactive) | 16.3 µM (inactive) |  | 14.2 µM (inactive) | 16.9 µM (inactive) | 18 µM (inactive) |
